From the supplement of paper PMC10307832

Key:
Test in all cases: relative viability (nuclei count vs DMSO), 5 days (fraction); higher = more cells survive
EKVX = system: EKVX
Method in brief: (§1)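 Lung cancer cell lines in 1536-well plates were dosed by pin tool the day after seeding, either with one drug alone or with a fixed anchor-drug dose plus five library-drug doses (not always all listed) in √10 steps. After 5 days, cells were fixed and their nuclei stained in one step (final 0.05% Triton X-100, 1% formaldehyde, 1 ug/ml Hoechst), then counted on 4× images. Relative viability is the nuclei count in treated wells divided by that in vehicle wells. Values are medians of duplicate plates.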

A-427 = system: A-427
Method in brief: as §1

HCC-366 = system: HCC-366
Method in brief: as §1

NCI-H838 = system: NCI-H838
Method in brief: as §1

NCI-H3122 = system: NCI-H3122
Method in brief: as §1

NCI-H661 = system: NCI-H661
Method in brief: as §1

EPLC-272H = system: EPLC-272H
Method in brief: as §1

NCI-H650 = system: NCI-H650
Method in brief: as §1

HCC-78 = system: HCC-78
Method in brief: as §1

NCI-H596 = system: NCI-H596
Method in brief: as §1

HOP-62 = system: HOP-62
Method in brief: as §1

## O=c1[nH]c2ccccc2n1C1CCN(CCCC(c2ccc(F)cc2)c2ccc(F)cc2)CC1 [Pimozide] + C[C@]1(O)C[C@@H](c2nc(-c3ccc4ccc(-c5ccccc5)nc4c3)c3c(N)nccn32)C1 [Linsitinib] (partner 1 µM)
EKVX; first compound 0.8 µM
  relative viability: 0.901
EKVX; first compound 2.53 µM
  relative viability: 0.969
EKVX; first compound 8 µM
  relative viability: 0.953
A-427; first compound 0.08 µM
  relative viability: 0.985
A-427; first compound 0.253 µM
  relative viability: 1.14
A-427; first compound 0.8 µM
  relative viability: 1.13
A-427; first compound 2.53 µM
  relative viability: 1.15
A-427; first compound 8 µM
  relative viability: 1.08
HCC-366; first compound 0.08 µM
  relative viability: 0.747
HCC-366; first compound 0.253 µM
  relative viability: 0.67
HCC-366; first compound 0.8 µM
  relative viability: 0.7
HCC-366; first compound 2.53 µM
  relative viability: 0.754
HCC-366; first compound 8 µM
  relative viability: 0.677
NCI-H838; first compound 0.08 µM
  relative viability: 1.01
NCI-H838; first compound 0.253 µM
  relative viability: 0.999
NCI-H838; first compound 0.8 µM
  relative viability: 0.885
NCI-H838; first compound 2.53 µM
  relative viability: 1.01
NCI-H838; first compound 8 µM
  relative viability: 1.04
NCI-H3122; first compound 0.08 µM
  relative viability: 1.01
NCI-H3122; first compound 0.253 µM
  relative viability: 1.06
NCI-H3122; first compound 0.8 µM
  relative viability: 1
NCI-H3122; first compound 2.53 µM
  relative viability: 1.05
NCI-H3122; first compound 8 µM
  relative viability: 1.06
NCI-H661; first compound 0.08 µM
  relative viability: 0.659
NCI-H661; first compound 0.253 µM
  relative viability: 0.422
NCI-H661; first compound 0.8 µM
  relative viability: 0.557
NCI-H661; first compound 2.53 µM
  relative viability: 0.513
NCI-H661; first compound 8 µM
  relative viability: 0.536
EPLC-272H; first compound 0.08 µM
  relative viability: 0.913
EPLC-272H; first compound 0.253 µM
  relative viability: 1.15
EPLC-272H; first compound 0.8 µM
  relative viability: 1.21
EPLC-272H; first compound 2.53 µM
  relative viability: 1.17
EPLC-272H; first compound 8 µM
  relative viability: 1.09
NCI-H650; first compound 0.08 µM
  relative viability: 0.842
NCI-H650; first compound 0.253 µM
  relative viability: 0.792
NCI-H650; first compound 0.8 µM
  relative viability: 0.911
NCI-H650; first compound 2.53 µM
  relative viability: 0.791
NCI-H650; first compound 8 µM
  relative viability: 0.847
HCC-78; first compound 0.08 µM
  relative viability: 0.531
HCC-78; first compound 0.253 µM
  relative viability: 0.469
HCC-78; first compound 0.8 µM
  relative viability: 0.549
HCC-78; first compound 2.53 µM
  relative viability: 0.46
HCC-78; first compound 8 µM
  relative viability: 0.536
NCI-H596; first compound 0.08 µM
  relative viability: 1.16
NCI-H596; first compound 0.253 µM
  relative viability: 1.12
NCI-H596; first compound 0.8 µM
  relative viability: 1.04
NCI-H596; first compound 2.53 µM
  relative viability: 0.895
NCI-H596; first compound 8 µM
  relative viability: 0.998
HOP-62; first compound 0.08 µM
  relative viability: 0.847
HOP-62; first compound 0.253 µM
  relative viability: 0.839
HOP-62; first compound 2.53 µM
  relative viability: 1.04
HOP-62; first compound 8 µM
  relative viability: 0.754
